Experimental data taken from US10858384B2, “Synthetic molecule constructs” (KODE BIOTECH LIMITED, priority 2004, dated 2020).

Columns and labels:
[1] = Solubility of synthetic glycolipids in hot PBS; format: physicochemical; settings: hot PBS
From the text: In the context of this description the phrase “water soluble” means a stable, single phase system is formed when the synthetic molecule construct is contacted with water or saline (such as PBS) in the absence of organic solvents or detergents, and the term “solution” has a corresponding meaning.
For use in the transformation of cells the first criterion that synthetic glycolipids must satisfy is that they are soluble in aqueous solvents, e.g. phosphate buffered saline.
Initial tests on the molecules were to establish solubility and thus eliminate those molecules that were unsuitable for use in the transformation of cells.

RBCs [2] = assay: Evaluation of insertion of different lipid tails by agglutination with the relevant antisera; format: cell-based; design: scale not given here
From the text: Transformation of RBCs with synthetic glycolipids with different lipid tails was first evaluated (Tables 22 and 24).

group O RBCs = assay: Diamed agglutination of RBCs transformed at 4° C. with synthetic glycolipids (weak A, B and AB cells); format: cell-based, human; settings: 0.03 mg/mL, anti-A, time = table row
Description: Transformation of RBCs with synthetic glycolipids Atri-sp-Ad-DOPE (I) and Btri-sp-Ad-DOPE (VI) at 4° C. was then evaluated (Tables 25 to 28). These transformations were directed towards the preparation of cells expressing low levels of A, B or A and B glycotopes (“weak A, B and AB cells”).
For the preparation of weak A and B cells transformation solutions (20 μL, Atri-sp-Ad-DOPE (I) at 0.08, 0.05 and 0.03 mg/mL, and Btri-sp-Ad-DOPE (VI) at 0.6, 0.3, 0.15, 0.08, 0.05 and 0.03 mg/mL) in 1× PBS were mixed with washed, packed group O RBCs (60 μL).
For the preparation of weak AB cells transformation solutions (20 μL, Atrii-sp-Ad-DOPE (I) at 0.07, 0.06 and 0.05 mg/mL, and Btri-sp-Ad-DOPE (VI) at 0.3, and 0.2 mg/mL) in 1× PBS were combined in block titre with washed, packed group O RBCs (60 μL). The combinations were: Atri-sp-Ad-DOPE (I) at 0.07 mg/mL+Btri-sp-Ad-DOPE (VI) at 0.3 mg/mL; Atri-sp-Ad-DOPE (I) at 0.07 mg/mL+Btri-sp-Ad-DOPE (VI) at 0.2 mg/mL; Atri-sp-Ad-DOPE (I) at 0.06 mg/mL+Btri-sp-Ad-DOPE (VI) at 0.3 mg/mL; Atri-sp-Ad-DOPE (I) at 0.06 mg/mL+Btri-sp-Ad-DOPE (VI) at 0.2 mg/mL; Atri-sp-Ad-DOPE (I) at 0.05 mg/mL+Btri-sp-Ad-DOPE (VI) at 0.3 mg/mL; and Atri-sp-Ad-DOPE (I) 0.05+Btri-sp-Ad-DOPE (VI) 0.2 mg/mL.
Cells and transformation solutions were placed in a […] fridge. Pipette mixing was performed at intervals. […]

RBCs [3] = assay: Insertion efficiency: post-transformation solutions concentrated 20x, Diamed serology; format: cell-based; settings: post-transformation solution concentrated 20×, from 0.08 mg/mL
Description: In addition, the post-transformation solutions were concentrated 20× and compared in parallel with the transformation solutions of known concentration. Only the post-transformation solutions derived from the 0.08 mg/mL Atri-sp-Ad-DOPE (I) and 0.6 mg/mL Btri-sp-Ad-DOPE (VI) solutions were tested.
Post-transformation solutions (20 μL) were dialysed (pore size 500 Da) against de-ionised water for 2 days. The samples were left to dry in a fumehood for 10 days. At the end of this time they were transferred into a rotavapor flask and set on the rotavapor to rotate under vacuum with no heat overnight. Samples were dried in a water bath at 40° C. and washed over into smaller vessels with chloroform-methanol 2:1 leaving significant amounts of dried cellular material. The chloroform-methanol 2:1 washings were dried down, washed over again into test-tubes with chloroform-methanol 2:1 and dried down. These samples were redissolved in 1 mL of 1× PBS and used for transformation experiments. The cellular material in the bottom of the flasks was washed out with water into another set of tubes.
The post-transformation solutions (from Atri-sp-Ad-DOPE (I) at 0.08 mg/mL and Btri-sp-Ad-DOPE (VI) at 0.6 mg/mL, 20 μL) were added to washed, packed RBCs (60 μL). […]

RBCs [4] = assay: Column agglutination of RBCs transformed with sterile-filtered vs unfiltered synthetic glycolipid; format: cell-based; settings: for Column agglutination: 0.01 mg/mL, anti-A BioClone
From the text: Some Atri-sp-Ad-DOPE (I) had been sterile-filtered through a 0.2 μm filter. To investigate whether transformation would be the same with this product a comparative trial was done.

[5] = test system: endometrial cells and embryos; assay: Attachment of transformed endometrial cells to modified embryos; format: cell-based; settings: 15 minutes at 37° C.
Description: Modified embryos (BioG-Avidin-BioIgG^B and BioG-Avidin-BioIgM^A) were prepared in accordance with the methods described in the specification accompanying the international application no. PCT/NZ03/00059 (published as WO03/087346).
Two concave glass slides were prepared, one with two wells of synthetic glycolipid Atri-sp-Ad-DOPE (I) inserted endometrial cells and the other with two wells of synthetic glycolipid Btri-sp-Ad-DOPE (VI) inserted endometrial cells.
The embryos were surrounded with endometrial cells. The wells were covered with mineral oil and incubated for 15 minutes at 37° C. Using a wide bore handling pipette each group of embryos were carefully transferred to a fresh drop of M2 media. The embryos were gently washed. The embryos were gently transferred into 2 μL of M2 media on a marked microscope slide. Each drop was overlaid with mineral oil
Under a central plane of focus on an Olympus microscope the number of endometrial cells adhered to the embryos in each group was assessed. The number of cells adhered to each embryo was recorded.

Water solubility [1]: Yes
SMILES: CCCCCCCC/C=C\CCCCCCCC(=O)OC[C@H](COP(=O)(O)OCCNC(=O)CCCCC(=O)NCCCO[C@@H]1O[C@H](CO)[C@H](O)[C@H](O[C@H]2O[C@H](CO)[C@H](O)[C@H](O)[C@H]2NC(C)=O)[C@H]1O[C@@H]1O[C@@H](C)[C@@H](O)[C@@H](O)[C@@H]1O)OC(=O)CCCCCCC/C=C\CCCCCCCC [Atri-sp-Ad-DOPE (I)]
Agglutination score (RBCs [2]; 10 μg/mL, Alba anti-A, first series): 0
Agglutination score (RBCs [2]; 10 μg/mL, Bio anti-A, first series): 0
Agglutination score (RBCs [2]; 20 μg/mL, Alba anti-A, first series): 0
Agglutination score (RBCs [2]; 20 μg/mL, Bio anti-A, first series): 0
Agglutination score (RBCs [2]; 30 μg/mL, Alba anti-A, first series): 0
Agglutination score (RBCs [2]; 30 μg/mL, Bio anti-A, first series): w+
Agglutination score (RBCs [2]; 40 μg/mL, Alba anti-A, first series): w+
Agglutination score (RBCs [2]; 50 μg/mL, Alba anti-A, first series): w+
Agglutination score (RBCs [2]; 1000 μg/mL, DBA): 0
Agglutination score (group O RBCs; unwashed): 0
Agglutination score (group O RBCs; washed): 0
Score (Diamed serology) (RBCs [3]): 0
Difference in transformation between sterile-filtered (0.2 μm) and unfiltered preparation (RBCs [4]): no significant difference
Column agglutination (RBCs [4]; sterile-filtered): 0
Column agglutination (RBCs [4]; unfiltered): 0
Average number of endometrial cells attached to modified embryos ([5]; embryos modified with BioG-Avidin-BioIgG^B): 2.3
Average number of endometrial cells attached to modified embryos ([5]; embryos modified with BioG-Avidin-BioIgM^A): 7.25
